Results reported in PubChem BioAssay AID1919008 (Molecular Pharmacology Branch, DTP, NCI, 2023).

System: DMS-114 complex spheroids with HUVEC/MSC, growth % test/control
Assay: Anticancer human tumor DMS-114 cell line growth inhibition [AhR];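 also: spheroids exposed to agents for 7 days before readout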;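 as to viability, T/C: 100% = DMSO vehicle control wells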
Conditions: for IC50: curve of first compound; for viability, T/C: stronger effect = lower value
Outline: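 Agents were dosed in half-log steps down from roughly clinical Cmax, or from 10 microM where Cmax was unknown, alone and with AhR antagonists. Read-out: percent test/control growth of tumor spheroids containing HUVEC and MSC stromal cells.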

For `CC1(C)CCC(CN2CCN(c3ccc(C(=O)NS(=O)(=O)c4ccc(NCC5CCOCC5)c([N+](=O)[O-])c4)c(Oc4cnc5[nH]ccc5c4)c3)CC2)=C(c2ccc(Cl)cc2)C1` + Cc1ccccc1N=Nc1ccc(NC(=O)c2ccnn2C)c(C)c1, the IC50 (second compound 0.1 µM) was > 10 µM, the IC50 (second compound 0.316 µM) was > 10 µM and the IC50 (second compound 1 µM) was > 10 µM. For the same compound, the IC50 (second compound 3.16 µM) was > 10 µM, the IC50 (second compound 10 µM) was > 10 µM and the viability, T/C (second compound 0.1 µM, first compound 0.0316 µM) was 103%. For the same compound, the viability, T/C (second compound 0.1 µM, first compound 0.1 µM) was 100%, the viability, T/C (second compound 0.1 µM, first compound 0.316 µM) was 112% and the viability, T/C (second compound 0.1 µM, first compound 1 µM) was 114%. The viability, T/C (second compound 0.1 µM, first compound 3.16 µM) was 120%, the viability, T/C (second compound 0.1 µM, first compound 10 µM) was 107% and the viability, T/C (second compound 0.316 µM, first compound 0.0316 µM) was 120%. For the same compound, the viability, T/C (second compound 0.316 µM, first compound 0.1 µM) was 112%, the viability, T/C (second compound 0.316 µM, first compound 0.316 µM) was 105% and the viability, T/C (second compound 0.316 µM, first compound 1 µM) was 104%. The viability, T/C (second compound 0.316 µM, first compound 3.16 µM) was 117%, the viability, T/C (second compound 0.316 µM, first compound 10 µM) was 118% and the viability, T/C (second compound 1 µM, first compound 0.0316 µM) was 105%. For the same compound, the viability, T/C (second compound 1 µM, first compound 0.1 µM) was 107%, the viability, T/C (second compound 1 µM, first compound 0.316 µM) was 113% and the viability, T/C (second compound 1 µM, first compound 1 µM) was 111%. The viability, T/C (second compound 1 µM, first compound 3.16 µM) was 117%, the viability, T/C (second compound 1 µM, first compound 10 µM) was 102% and the viability, T/C (second compound 3.16 µM, first compound 0.0316 µM) was 99.8%. For the same compound, the viability, T/C (second compound 3.16 µM, first compound 0.1 µM) was 104%, the viability, T/C (second compound 3.16 µM, first compound 0.316 µM) was 103% and the viability, T/C (second compound 3.16 µM, first compound 1 µM) was 110%. The viability, T/C (second compound 3.16 µM, first compound 3.16 µM) was 114%, the viability, T/C (second compound 3.16 µM, first compound 10 µM) was 105% and the viability, T/C (second compound 10 µM, first compound 0.0316 µM) was 104%. It also gave a viability, T/C (second compound 10 µM, first compound 0.1 µM) of 102%, a viability, T/C (second compound 10 µM, first compound 0.316 µM) of 101% and a viability, T/C (second compound 10 µM, first compound 1 µM) of 104%. It also gave a viability, T/C (second compound 10 µM, first compound 3.16 µM) of 101% and a viability, T/C (second compound 10 µM, first compound 10 µM) of 87.1%.
